Assay results from US9375000B2, “Pesticidal arylpyrrolidines” (Bayer Intellectual Property GmbH, priority 2011, dated 2016).

Experiments:
Assay type in all cases: in vivo
[1] = system: Cucurbit Leaf Beetle (Aulacophora femoralis); experiment: Cucurbit leaf beetle (Aulacophora femoralis) cucumber leaf dip test; conditions: after 7 days; for pest or weed control at 20 ppm: Aulacophora, foliar, 168 h, read-out: insecticidal activity
Outline: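 Cucumber leaves dipped in compound formulated with DMF and polyoxyethylene alkyl phenyl ether, diluted in water, with ammonium salt or ammonium salt plus penetration enhancer at 1000 ppm added if necessary; dried leaves placed on sterilized soil with five second-instar larvae. Kept at 25° C; larval mortality counted after 7 days.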

[2] = system: Larvae of Spodoptera litura; experiment: Larvae of Spodoptera litura, method using artificial feeds; conditions: artificial feed, after 7 days; for pest or weed control at 20 ppm: Spodoptera litura, 168 h, read-out: insecticidal activity (pesticidal ratio)
Outline: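 Compound formulated in dimethylformamide with polyoxyethylene alkyl phenyl ether emulsifier, water-diluted and poured onto artificial diet. Five 3rd-instar Spodoptera litura larvae per cup, held at 25° C and 50-60% humidity. Mortality after 7 days expressed as pesticidal ratio.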

[3] = system: Two-Spotted Spider Mite (Tetranychus urticae); experiment: Two-spotted spider mite (Tetranychus urticae) spray test on kidney bean; conditions: after 7 days; for pest or weed control at 20 ppm: Tetranychus urticae, 168 h, read-out: acaricidal activity
Outline: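 Kidney bean plants at the two-leaf stage carried 50-100 adult mites and were sprayed one day later with compound in DMF/polyoxyethylene alkyl phenyl ether diluted in water. Ammonium salt and penetration enhancer at 1000 ppm were added if needed. Acaricidal activity (% mites killed) was scored after 7 days in a greenhouse.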

[4] = active compound concentration 4 ppm
[5] = active compound concentration 20 ppm
[6] = active compound concentration 100 ppm

CCC(=O)NCc1ccc(N2CCC(c3cc(Cl)c(F)c(Cl)c3F)(C(F)(F)F)C2O)cc1Br (centres unmarked) [A1-430]
insecticidal activity [1, 4]: 100% | insecticidal activity (pesticidal ratio) [2, 4]: 100% | acaricidal activity [3, 5]: 100%

CCC(=O)NCc1cc(F)c(N2CCC(c3cc(Cl)c(Cl)c(Cl)c3)(C(F)(F)F)C2O)cc1F (centres unmarked) [A1-454]
insecticidal activity [1, 5]: 100% | insecticidal activity (pesticidal ratio) [2, 5]: 100% | acaricidal activity [3, 5]: 100%

N#CCC(=O)NCc1ccc(N2CCC(c3cc(C(F)(F)F)cc(C(F)(F)F)c3)(C(F)(F)F)C2O)cc1C(F)(F)F (centres unmarked) [A1-528]
insecticidal activity [1, 4]: 100% | insecticidal activity (pesticidal ratio) [2, 4]: 100% | acaricidal activity [3, 4]: 98%

CC(C)(C)OC(=O)NCc1ccc(N2CCC(c3cc(Cl)c(Cl)c(Cl)c3)(C(F)(F)F)C2O)cc1 (centres unmarked) [A1-575]
insecticidal activity [1, 6]: 100% | insecticidal activity (pesticidal ratio) [2, 6]: 80% | acaricidal activity [3, 6]: 98%

CC(=O)NCc1ccc(N2CCC(c3cc(Cl)cc(Cl)c3)(C(F)(F)F)C2O)nc1C(F)(F)F (centres unmarked) [A3-1]
insecticidal activity [1, 5]: 100% | insecticidal activity (pesticidal ratio) [2, 5]: 100% | acaricidal activity [3, 5]: 100%

O=C(NCc1ccc(N2CCC(c3cc(Cl)cc(Cl)c3)(C(F)(F)F)C2O)nc1C(F)(F)F)C1CC1 (centres unmarked) [A3-5]
insecticidal activity [1, 5]: 100% | insecticidal activity (pesticidal ratio) [2, 5]: 100% | acaricidal activity [3, 5]: 100%

O=C(CC(F)(F)F)NCc1ccc(N2CCC(c3cc(Cl)cc(Cl)c3)(C(F)(F)F)C2O)nc1C(F)(F)F (centres unmarked) [A3-7]
insecticidal activity [1, 5]: 100% | insecticidal activity (pesticidal ratio) [2, 5]: 100% | acaricidal activity [3, 5]: 100%

CC(=O)NCc1ccc(N2CCC(c3cc(Cl)c(Cl)c(Cl)c3)(C(F)(F)F)C2O)nc1C(F)(F)F (centres unmarked) [A3-12]
insecticidal activity [1, 5]: 100% | insecticidal activity (pesticidal ratio) [2, 5]: 100% | acaricidal activity [3, 5]: 100%

COCCC(=O)NCc1ccc(N2CCC(c3cc(Cl)c(Cl)c(Cl)c3)(C(F)(F)F)C2O)nc1C(F)(F)F (centres unmarked) [A3-19]
insecticidal activity [1, 4]: 100% | insecticidal activity [1, 5]: 100% | insecticidal activity (pesticidal ratio) [2, 4]: 100% | insecticidal activity (pesticidal ratio) [2, 5]: 100% | acaricidal activity [3, 4]: 100% | acaricidal activity [3, 5]: 100%

CS(=O)(=O)CC(=O)NCc1ccc(N2CCC(c3cc(Cl)c(Cl)c(Cl)c3)(C(F)(F)F)C2O)nc1C(F)(F)F (centres unmarked) [A3-22]
insecticidal activity [1, 5]: 100% | insecticidal activity (pesticidal ratio) [2, 5]: 100% | acaricidal activity [3, 5]: 100%

CC(=O)NCc1ccc(N2CCC(c3cc(C(F)(F)F)cc(C(F)(F)F)c3)(C(F)(F)F)C2O)nc1C(F)(F)F (centres unmarked) [A3-23]
insecticidal activity [1, 5]: 100% | insecticidal activity (pesticidal ratio) [2, 5]: 100% | acaricidal activity [3, 5]: 100%

CCC(=O)NCc1ccc(N2CCC(c3cc(C(F)(F)F)cc(C(F)(F)F)c3)(C(F)(F)F)C2O)nc1C(F)(F)F (centres unmarked) [A3-24]
insecticidal activity [1, 5]: 100% | insecticidal activity (pesticidal ratio) [2, 5]: 100% | acaricidal activity [3, 5]: 100%

O=C(CC1CC1)NCc1ccc(N2CCC(c3cc(C(F)(F)F)cc(C(F)(F)F)c3)(C(F)(F)F)C2O)nc1C(F)(F)F (centres unmarked) [A3-28]
insecticidal activity [1, 5]: 100% | insecticidal activity (pesticidal ratio) [2, 5]: 100% | acaricidal activity [3, 5]: 100%

O=C(CC(F)(F)F)NCc1ccc(N2CCC(c3cc(C(F)(F)F)cc(C(F)(F)F)c3)(C(F)(F)F)C2O)nc1C(F)(F)F (centres unmarked) [A3-29]
insecticidal activity [1, 5]: 100% | insecticidal activity (pesticidal ratio) [2, 5]: 100% | acaricidal activity [3, 5]: 100%

CS(=O)(=O)CC(=O)NCc1ccc(N2CCC(c3cc(C(F)(F)F)cc(C(F)(F)F)c3)(C(F)(F)F)C2O)nc1C(F)(F)F (centres unmarked) [A3-33]
insecticidal activity [1, 5]: 100% | insecticidal activity (pesticidal ratio) [2, 5]: 100% | acaricidal activity [3, 5]: 100%

Cc1nc(N2CCC(c3cc(Cl)c(Cl)c(Cl)c3)(C(F)(F)F)C2O)ccc1CNC(=O)C1CC1 (centres unmarked) [A3-82]
insecticidal activity [1, 5]: 100% | insecticidal activity (pesticidal ratio) [2, 5]: 100% | acaricidal activity [3, 5]: 100%

Cc1nc(N2CCC(c3cc(Cl)c(Cl)c(Cl)c3)(C(F)(F)F)C2O)ccc1CNC(=O)CC(F)(F)F (centres unmarked) [A3-84]
insecticidal activity [1, 5]: 100% | insecticidal activity (pesticidal ratio) [2, 5]: 100% | acaricidal activity [3, 5]: 100%

O=C(NCc1ccc(N2CCC(c3cc(Cl)c(Cl)c(Cl)c3)(C(F)(F)F)C2O)nc1Br)C1CC1 (centres unmarked) [A3-115]
insecticidal activity [1, 5]: 100% | insecticidal activity (pesticidal ratio) [2, 5]: 100% | acaricidal activity [3, 5]: 100%

O=C(CC(F)(F)F)NCc1ccc(N2CCC(c3cc(Cl)c(Cl)c(Cl)c3)(C(F)(F)F)C2O)nc1Br (centres unmarked) [A3-117]
insecticidal activity [1, 5]: 100% | insecticidal activity (pesticidal ratio) [2, 5]: 100% | acaricidal activity [3, 5]: 100%

CCC(=O)NCc1ccc(N2CCC(c3cc(C(F)(F)F)cc(C(F)(F)F)c3)(C(F)(F)F)C2O)nc1C (centres unmarked) [A3-123]
insecticidal activity [1, 5]: 100% | insecticidal activity (pesticidal ratio) [2, 5]: 100% | acaricidal activity [3, 5]: 100%

Cc1nc(N2CCC(c3cc(C(F)(F)F)cc(C(F)(F)F)c3)(C(F)(F)F)C2O)ccc1CNC(=O)CC1CC1 (centres unmarked) [A3-127]
insecticidal activity [1, 4]: 100% | insecticidal activity [1, 5]: 100% | insecticidal activity (pesticidal ratio) [2, 4]: 80% | acaricidal activity [3, 4]: 100% | acaricidal activity [3, 5]: 100%

Cc1nc(N2CCC(c3cc(C(F)(F)F)cc(C(F)(F)F)c3)(C(F)(F)F)C2O)ccc1CNC(=O)CC(F)(F)F (centres unmarked) [A3-128]
insecticidal activity [1, 5]: 100% | insecticidal activity (pesticidal ratio) [2, 5]: 100% | acaricidal activity [3, 5]: 100%

CCc1nc(N2CCC(c3cc(C(F)(F)F)cc(C(F)(F)F)c3)(C(F)(F)F)C2O)ccc1CNC(=O)C1CC1 (centres unmarked) [A3-137]
insecticidal activity [1, 5]: 100% | insecticidal activity (pesticidal ratio) [2, 5]: 100% | acaricidal activity [3, 5]: 100%

O=C(NCc1ccc(N2CCC(c3cc(C(F)(F)F)cc(C(F)(F)F)c3)(C(F)(F)F)C2O)nc1Br)C1CC1 (centres unmarked) [A3-159]
insecticidal activity [1, 5]: 100% | insecticidal activity (pesticidal ratio) [2, 5]: 100% | acaricidal activity [3, 5]: 100%

O=C(CC(F)(F)F)NCc1ccc(N2CCC(c3cc(C(F)(F)F)cc(C(F)(F)F)c3)(C(F)(F)F)C2O)nc1Br (centres unmarked) [A3-161, N-[(6-{3-[3,5-bis(trifluoromethyl)phenyl]-2-hydroxy-3-(trifluoromethyl)pyrrolidin-1-yl}-2-bromopyridin-3-yl)methyl]-3,3,3-trifluoropropanamide]
pest or weed control at 20 ppm [1, 5]: 100% | pest or weed control at 20 ppm [2, 5]: 100% | pest or weed control at 20 ppm [3, 5]: 100%

O=C(NCc1ccc(N2CCC(c3cc(Cl)c(F)c(Cl)c3F)(C(F)(F)F)C2O)nc1Br)C1CC1 (centres unmarked) [A3-326]
insecticidal activity [1, 4]: 100% | insecticidal activity (pesticidal ratio) [2, 4]: 100% | acaricidal activity [3, 5]: 100%

CC(=O)NCc1ccc(N2CCC(c3cc(Cl)cc(Cl)c3F)(C(F)(F)F)C2O)nc1C(F)(F)F (centres unmarked) [A3-344]
insecticidal activity [1, 4]: 100% | insecticidal activity (pesticidal ratio) [2, 4]: 100% | acaricidal activity [3, 5]: 100%

CCC(=O)NCc1ccc(N2CCC(c3cc(Cl)cc(Cl)c3F)(C(F)(F)F)C2O)nc1C(F)(F)F (centres unmarked) [A3-345]
insecticidal activity [1, 4]: 100% | insecticidal activity (pesticidal ratio) [2, 4]: 100% | acaricidal activity [3, 5]: 100%

O=C(NCc1cnc(N2CCC(c3cc(Cl)c(Cl)c(Cl)c3)(C(F)(F)F)C2O)nc1C(F)(F)F)C1CC1 (centres unmarked) [A4-16, N-({2-[2-hydroxy-3-(3,4,5-trichlorophenyl)-3-(trifluoromethyl)-pyrrolidin-1-yl]-4-(trifluoromethyl)pyrimidin-5-yl}methyl)cyclopropanecarboxamide]
pest or weed control at 20 ppm [1, 5]: 100% | pest or weed control at 20 ppm [2, 5]: 100% | pest or weed control at 20 ppm [3, 5]: 100%

O=C(CC(F)(F)F)NCc1cnc(N2CCC(c3cc(Cl)c(Cl)c(Cl)c3)(C(F)(F)F)C2O)nc1C(F)(F)F (centres unmarked) [A4-18]
insecticidal activity [1, 5]: 100% | insecticidal activity (pesticidal ratio) [2, 5]: 100% | acaricidal activity [3, 5]: 100%

CSCC(=O)NCc1cnc(N2CCC(c3cc(Cl)c(Cl)c(Cl)c3)(C(F)(F)F)C2O)nc1C(F)(F)F (centres unmarked) [A4-20]
insecticidal activity [1, 5]: 100% | insecticidal activity (pesticidal ratio) [2, 5]: 100% | acaricidal activity [3, 5]: 100%

C[S+]([O-])CC(=O)NCc1cnc(N2CCC(c3cc(Cl)c(Cl)c(Cl)c3)(C(F)(F)F)C2O)nc1C(F)(F)F (centres unmarked) [A4-21]
insecticidal activity [1, 5]: 100% | insecticidal activity (pesticidal ratio) [2, 5]: 100% | acaricidal activity [3, 5]: 100%

CS(=O)(=O)CC(=O)NCc1cnc(N2CCC(c3cc(Cl)c(Cl)c(Cl)c3)(C(F)(F)F)C2O)nc1C(F)(F)F (centres unmarked) [A4-22]
insecticidal activity [1, 5]: 100% | insecticidal activity (pesticidal ratio) [2, 5]: 100% | acaricidal activity [3, 5]: 100%

CCC(=O)NCc1cnc(N2CCC(c3cc(C(F)(F)F)cc(C(F)(F)F)c3)(C(F)(F)F)C2O)nc1C(F)(F)F (centres unmarked) [A4-24]
insecticidal activity [1, 5]: 100% | insecticidal activity (pesticidal ratio) [2, 5]: 100% | acaricidal activity [3, 5]: 100%

O=C(NCc1cnc(N2CCC(c3cc(C(F)(F)F)cc(C(F)(F)F)c3)(C(F)(F)F)C2O)nc1C(F)(F)F)C1CC1 (centres unmarked) [A4-27]
insecticidal activity [1, 5]: 100% | insecticidal activity (pesticidal ratio) [2, 5]: 100% | acaricidal activity [3, 5]: 100%

O=C(CC(F)(F)F)NCc1cnc(N2CCC(c3cc(C(F)(F)F)cc(C(F)(F)F)c3)(C(F)(F)F)C2O)nc1C(F)(F)F (centres unmarked) [A4-29]
insecticidal activity [1, 5]: 100% | insecticidal activity (pesticidal ratio) [2, 5]: 100% | acaricidal activity [3, 5]: 100%

COCCC(=O)NCc1cnc(N2CCC(c3cc(C(F)(F)F)cc(C(F)(F)F)c3)(C(F)(F)F)C2O)nc1C(F)(F)F (centres unmarked) [A4-30]
insecticidal activity [1, 5]: 100% | insecticidal activity (pesticidal ratio) [2, 5]: 100% | acaricidal activity [3, 5]: 100%
